Literature values as cited in patent US20260000671A1, “CONCENTRATED SOLUTIONS COMPRISING 5,10-METHYLENE-(6R)-TETRAHYDROFOLIC ACID” (Merck Patent GMBH, priority 2022, published 2026).

In the case of `Nc1nc2c(c(=O)[nH]1)N1CN(c3ccc(C(=O)N[C@@H](CCC(=O)O)C(=O)O)cc3)C[C@H]1CN2` [5,10-methylene-(6R,S)-tetrahydrofolic acid], the “purity 24 hours following dissolution in water” value (24 hours following dissolution in water, % normalized purity) is given as 44.9 % of the starting purity, the “stability profile in words” value (following dissolution in water, FIG. 1) is given as “degraded rapidly over time” and the “purity after 7 hours” value (re-constituted lyophilizate, after 7 hours) is given as 84%. The “purity loss per hour (degradation rate, slope of best-fit line)” value (re-constituted lyophilizate, linear regression of stability profile) was 2.3 % purity per hour.
